Test results published in patent US12473295B2, “Substituted straight chain spiro derivatives” (Janssen Pharmaceutica NV, priority 2019, dated 2025).
Counter-ions that a name gives are not always drawn. Like-named read-outs stand apart in the source and are kept apart here.

Tests used:
KO-52 cells = test: Proliferation assay (spheroid growth, 8 days), KO-52 control cell line; type: cell-based, human; conditions: Homo sapiens, […], read-out: spheroid assay_OneTime KO-52 IC50
Protocol: The anti-proliferative effect of menin/MLL protein/protein interaction inhibitor test compounds was assessed in human leukemia cell lines. The cell line MOLM14 harbors a MLL translocation and expresses the MLL fusion protein MLL-AF9, respectively, as well as the wildtype protein from the second allele. OCI-AML3 cells that carry the NPM1c gene mutation were also tested. […] KO-52 was used as a control cell line containing two MLL (KMT2A) wildtype alleles in order to exclude compounds that display general cytotoxic effects.
KO-52 and OCI-AML3 cell lines were propagated in alpha-MEM (Sigma Aldrich) supplemented with 20% heat-inactivated fetal bovine serum (HyClone), 2 mM L-glutamine (Sigma Aldrich) and 50 μg/ml gentamycin (Gibco).
In order to assess the anti-proliferative effects, 200 MOLM14 cells, 200 OCI-AML3 cells or 300 KO-52 cells were seeded in 200 μl media per well in […] round bottom, ultra-low attachment plates (Costar, catalogue number 7007). Cell seeding numbers were chosen based on growth curves to ensure linear growth throughout the experiment. Test compounds were added at different concentrations and the DMSO content was normalized to 0.3%. Cells were incubated for 8 days at 37° C. and 5% CO2. Spheroid like growth was measured in real-time by live-cell imaging (IncuCyteZOOM, Essenbio, 4× objective) acquiring images at day 8. Confluence (%) as a measure of spheroid size was determined using an integrated analysis tool.
In order to determine the effect of the test compounds over time, the confluence in each well as a measure of spheroid size, was calculated. Confluence of the highest dose of a reference compound was used as baseline for the LC (Low control) and the confluence of DMSO treated cells was used as 0% cytotoxicity (High Control, HC).
GraphPad Prism(version 7.00) was used to calculate the IC50. Dose-response equation was used for the plot of % Effect vs Log 10 compound concentration with a variable slope and fixing the maximum to 100% and the minimum to 0%.

MEIS1 mRNA = MEIS1 mRNA expression assay (Quantigene Singleplex) in MOLM14 cells; type: cell-based, human; conditions: Homo sapiens, MOLM-14, 48 h, 48 hours incubation;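 also: MEIS1 transcript levels read by probe hybridization and normalized to RPL28 mRNA, with IC50 fitted to fold changes across a rising compound concentration series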
OCI-AML3 cells = test: Proliferation assay (spheroid growth, 8 days), OCI-AML3; type: cell-based, human; conditions: OCI-AML3, 8 days
In short: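 200 MOLM14 (MLL-AF9), 200 OCI-AML3 (NPM1c) or 300 KO-52 (MLL wildtype) cells were grown as spheroids in ultra-low attachment wells with compound, 0.3% DMSO, for 8 days at 37 °C. Confluence was imaged on day 8, normalized to DMSO and top-dose reference compound. IC50 came from a variable-slope fit constrained 0–100%.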

[1] = molecular target: menin/MLL (terbium chelate-labeled menin, FITC-MBM1 peptide) (Homo sapiens (Human), UniProt O00255); test: Menin/MLL homogenous time-resolved fluorescence (HTRF) assay; type: binding; conditions: HTRF-30 min incubation IC50, 30 min incubation;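 also: IC50 from percent inhibition of HTRF signal, normalized between wells without competitor and wells with a saturating competitor that displaces FITC-MBM1 from His-tagged menin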
Chain of menin/MLL (terbium chelate-labeled menin, FITC-MBM1 peptide) (O00255 other isoform, or with tags, fused parts or gaps): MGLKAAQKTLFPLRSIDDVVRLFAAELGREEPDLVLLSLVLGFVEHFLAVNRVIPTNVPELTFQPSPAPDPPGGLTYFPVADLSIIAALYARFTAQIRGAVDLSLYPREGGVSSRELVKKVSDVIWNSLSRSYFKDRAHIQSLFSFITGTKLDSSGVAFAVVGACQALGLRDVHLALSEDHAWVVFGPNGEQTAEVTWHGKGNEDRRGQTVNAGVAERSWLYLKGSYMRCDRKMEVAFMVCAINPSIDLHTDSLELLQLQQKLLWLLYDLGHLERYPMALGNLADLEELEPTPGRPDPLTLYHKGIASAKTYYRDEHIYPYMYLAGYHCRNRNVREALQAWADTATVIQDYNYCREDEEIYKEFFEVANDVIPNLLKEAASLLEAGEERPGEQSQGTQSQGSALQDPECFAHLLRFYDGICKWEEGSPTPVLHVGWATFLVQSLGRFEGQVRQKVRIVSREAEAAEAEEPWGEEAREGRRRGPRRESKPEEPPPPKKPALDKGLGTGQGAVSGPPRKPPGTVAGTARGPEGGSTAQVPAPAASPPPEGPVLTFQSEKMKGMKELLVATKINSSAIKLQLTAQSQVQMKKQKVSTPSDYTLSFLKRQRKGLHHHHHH

MOLM14 cells = test: Proliferation assay (spheroid growth, 8 days), MOLM14; type: cell-based, human; conditions: MOLM14, 8 days, read-out: spheroid assay_OneTime MOLM14 IC50;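 also: spheroid size read as confluence by live-cell imaging, compounds added at a range of concentrations with 0.3% DMSO, DMSO-treated wells = 0%, highest reference dose = low control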

SMILES	IC50 (MEIS1 mRNA)	IC50 (OCI-AML3 cells; Homo sapiens, OCI-AML-3, […])	IC50 [1]	IC50 (MOLM14 cells; Homo sapiens, MOLM-14, […])	IC50 (OCI-AML3 cells)	IC50 (MOLM14 cells)	IC50 (KO-52 cells)
CCN(C(=O)c1cc(F)ccc1Oc1nncnc1N1CCC2(C1)CN([C@H](CCCN(C)[C@H](C)CC(=O)NC)C(C)C)C2)C(C)C [Compound 191, N-ethyl-5-fluoro-N-isopropyl-2-((5-(2-((R)-2-methyl-6-(methyl((R)-4-(methylamino)-4-oxobutan-2-yl)amino)hexan-3-yl)-2,6-diazaspiro[3.4]octan-6-yl)-1,2,4-triazin-6-yl)oxy)benzamide fumarate]	220 nM	560 nM	0.28 nM	280 nM			> 15000 nM
CCN(C(=O)c1cc(F)ccc1Oc1nncnc1N1CCC2(C1)CN(C(CCN)C(C)C)C2)C(C)C (stereo not drawn) [Compound 26, 2-((5-(2-(1-amino-4-methylpentan-3-yl)-2,6-diazaspiro[3.4]octan-6-yl)-1,2,4-triazin-6-yl)oxy)-N-ethyl-5-fluoro-N-isopropylbenzamide]	490 nM	1340 nM	0.28 nM	270 nM			> 15000 nM
CCN(C(=O)c1cc(F)ccc1Oc1nncnc1N1CCC2(C1)CN([C@H](CCN)C(C)C)C2)C(C)C (single isomer, unassigned) [Compound 219, (*R)-2-((5-(2-(1-amino-4-methylpentan-3-yl)-2,6-diazaspiro[3.4]octan-6-yl)-1,2,4-triazin-6-yl)oxy)-N-ethyl-5-fluoro-N-isopropylbenzamide fumarate]	~230 nM	430 nM	0.27 nM	130 nM			> 15000 nM
CC(C)[C@@H](CCC(N)=O)N1CC2(CCN(c3ncnnc3Oc3ccc(F)cc3-c3cncnc3C3CC3)C2)C1 (single isomer, unassigned) [Compound 43, (*R)-4-(6-(6-(2-(4-cyclopropylpyrimidin-5-yl)-4-fluorophenoxy)-1,2,4-triazin-5-yl)-2,6-diazaspiro[3.4]octan-2-yl)-5-methylhexanamido]	~240 nM	1200 nM	0.55 nM	290 nM			> 15000 nM
CCN(C(=O)c1cc(F)ccc1Oc1nncnc1N1CCC2(C1)CN(C(C(C)C)C(C)CCN(C)CCOC)C2)C(C)C (single isomer, unassigned) [Compound 266, N-ethyl-5-fluoro-N-isopropyl-2-((5-(2-(6-((2-methoxyethyl)(methyl)amino)-2,4-dimethylhexan-3-yl)-2,6-diazaspiro[3.4]octan-6-yl)-1,2,4-triazin-6-yl)oxy)benzamide (mixture of R,R and S,S; or mixture of R,S and S,R) fumarate]	39 nM		0.92 nM		49 nM	29 nM	> 15000 nM
CCN(C(=O)c1cc(F)ccc1Oc1nncnc1N1CCC2(C1)CN([C@H](CCNCCCOC)C(C)C)C2)C(C)C (single isomer, unassigned) [Compound 271, (*R)—N-ethyl-5-fluoro-N-isopropyl-2-((5-(2-(1-((3-methoxypropyl)amino)-4-methylpentan-3-yl)-2,6-diazaspiro[3.4]octan-6-)-1,2,4-triazin-6-yl)oxy)benzamide]	100 nM	160 nM	0.27 nM	65 nM			> 15000 nM
CC(C)[C@@H](CCCN(C)CCC(=O)N(C)C)N1CC2(CCN(c3ncnnc3Oc3ccc(F)cc3C(=O)N(C(C)C)C(C)C)C2)C1 (single isomer, unassigned) [Compound 145, (*R)-2-((5-(2-(6-((3-(dimethylamino)-3-oxopropyl)(methyl)amino)-2-methylhexan-3-yl)-2,6-diazaspiro[3.4]octan-6-yl)-1,2,4-triazin-6-yl)oxy)-5-fluoro-N,N-diisopropylbenzamide fumarate]	21 nM	110 nM	0.07 nM	14 nM			> 15000 nM
CCN(C(=O)c1cc(F)ccc1Oc1nncnc1N1CCC2(C1)CN([C@H](CCCN(C)[C@@H](C)CC(=O)NC)C(C)C)C2)C(C)C [Compound 193, N-ethyl-5-fluoro-N-isopropyl-2-((5-(2-((R)-2-methyl-6-(methyl((S)-4-(methylamino)-4-oxobutan-2-yl)amino)hexan-3-yl)-2,6-diazaspiro[3.4]octan-6-yl)-1,2,4-triazin-6-yl)oxy)benzamide fumarate]	120 nM	290 nM	~0.26 nM	170 nM			> 15000 nM

More lines, main results first:

IC50 (MEIS1 mRNA)	IC50 (OCI-AML3 cells; Homo sapiens, OCI-AML-3, […])	IC50 [1]	IC50 (MOLM14 cells; Homo sapiens, MOLM-14, […])	IC50 (OCI-AML3 cells)	IC50 (MOLM14 cells)	SMILES	IC50 (KO-52 cells)
~17 nM	12 nM	0.1 nM	10 nM			CCN(C(=O)c1cc(F)ccc1Oc1nncnc1N1CCC2(C1)CN([C@H](CCCNC(COC)COC)C(C)C)C2)C(C)C [Compound 159, (R)-2-((5-(2-(6-((1,3-dimethoxypropan-2-yl)amino)-2-methylhexan-3-yl)-2,6-diazaspiro[3.4]octan-6-yl)-1,2,4-triazin-6-yl)oxy)-N-ethyl-5-fluoro-N-isopropylbenzamide fumarate]	6300 nM
110 nM	97 nM	0.35 nM	150 nM			CCN(C(=O)c1cc(F)ccc1Oc1nncnc1N1CCC2(C1)CN([C@H](CCCCN(C)C)C(C)C)C2)C(C)C (single isomer, unassigned) [Compound 211]	> 15000 nM
7.3 nM	64 nM	0.062 nM	24 nM			CCN(C(=O)c1cc(F)ccc1Oc1nncnc1N1CCC2(C1)CN([C@H](CCCN(C)C[C@@H](COC)OC)C(C)C)C2)C(C)C (single isomer, unassigned) [Compound 177, 2-((5-(2-((R)-6-(((*S)-2,3-dimethoxypropyl)(methyl)amino)-2-methylhexan-3-yl-2,6-diazaspiro[3.4]octan-6-yl)-1,2,4-triazin-6-yl)oxy)-N-ethyl-5-fluoro-N-isopropylbenzamide fumarate]	> 15000 nM
29 nM	71 nM	0.066 nM	36 nM			CCN(C(=O)c1cc(F)ccc1Oc1nncnc1N1CCC2(C1)CN([C@H](CCC(C)N(C)CCOC)C(C)C)C2)C(C)C (stereo partly drawn) [Compound 300, N-ethyl-5-fluoro-N-isopropyl-2-((5-(2-((3R)-6-((2-methoxyethyl)(methyl)amino)-2-methylheptan-3-yl)-2,6-diazaspiro[3.4]octan-6-yl)-1,2,4-triazin-6-yl)oxy)benzamide fumarate]	> 15000 nM
34 nM	150 nM	0.065 nM	21 nM			CCN(C(=O)c1cc(F)ccc1Oc1nncnc1N1CCC2(C1)CN([C@H](CCCN(C)C(C)C)C(C)C)C2)C(C)C (single isomer, unassigned) [Compound 122, (*R)—N-ethyl-5-fluoro-N-isopropyl-2-((5-(2-(6-(isopropyl(methyl)amino)-2-methylhexan-3-yl)-2,6-diazaspiro[3.4]octan-6-yl)-1,2,4-triazin-6-yl)oxy)benzamide fumarate]	> 15000 nM
390 nM	1610 nM	0.5 nM	240 nM			CCN(C(=O)c1cc(F)ccc1Oc1nncnc1N1CCC2(C1)CN([C@H](CCN(C)CCOC)C(C)C)C2)C(C)C (single isomer, unassigned) [Compound 276, (*R)—N-ethyl-5-fluoro-N-isopropyl-2-((5-(2-(1-((2-methoxyethyl)(methyl)amino)-4-methylpentan-3-yl)-2,6-diazaspiro[3.4]octan-6-yl)-1,2,4-triazin-6-yl)oxy)benzamide]	> 15000 nM
10 nM	46 nM	0.054 nM	14 nM			CCN(C(=O)c1cc(F)ccc1Oc1nncnc1N1CCC2(C1)CN([C@H](CCCN(C)C[C@@H](O)COC)C(C)C)C2)C(C)C [Compound 283, N-ethyl-5-fluoro-2-((5-(2-((R)-6-(((R)-2-hydroxy-3-methoxypropyl)(methyl)amino)-2-methylhexan-3-yl)-2,6-diazaspiro[3.4]octan-6-yl)-1,2,4-triazin-6-yl)oxy)-N-isopropylbenzamide fumarate]	> 15000 nM
